In paper PMC6540285, “Evaluation of Protein Kinase Inhibitors with PLK4 Cross-Over Potential in a Pre-Clinical Model of Cancer” (International Journal of Molecular Sciences, 2019):

Tests used:
Assay in all cases: SelectScreen kinase profiling, ZLYTE
Format in all cases: biochemical
[1] = biological target: PDGFRA T674I (Homo sapiens, UniProt P16234, T674I)
Description: (§1) Kinase Technology % Inhibition Avg Kinase Technology % Inhibition Avg
(§2) STK23 (MSSK1) ZLYTE 59 TGFBR1 (ALK5) LanthaScreen 85
(§3) STK24 (MST3) ZLYTE 85 TGFBR2 LanthaScreen 77
(§4) STK25 (YSK1) ZLYTE 45 TLK1 LanthaScreen 4
(§5) STK3 (MST2) ZLYTE 77 TLK2 LanthaScreen 33
(§6) STK32B (YANK2) LanthaScreen 61 TNIK LanthaScreen 15
(§7) STK32C (YANK3) LanthaScreen 62 TNK1 ZLYTE 94
(§8) STK33 LanthaScreen 81 TNK2 (ACK) LanthaScreen 71
(§9) STK38 (NDR) LanthaScreen 85 TTK LanthaScreen 54
(§10) STK38L (NDR2) LanthaScreen 59 TXK ZLYTE 94
(§11) STK39 (STLK3) LanthaScreen 38 TYK2 ZLYTE 99
(§12) STK4 (MST1) ZLYTE 93 TYRO3 (RSE) ZLYTE 92
(§13) SYK ZLYTE 98 ULK1 LanthaScreen 80
(§14) TAOK1 LanthaScreen 82 ULK2 LanthaScreen 56
(§15) TAOK2 (TAO1) ZLYTE 87 ULK3 LanthaScreen 5
(§16) TAOK3 (JIK) LanthaScreen 25 VRK2 LanthaScreen 32
(§17) TBK1 ZLYTE 99 WEE1 LanthaScreen 75
(§18) TEC LanthaScreen -9 WNK1 LanthaScreen 2
(§19) TEK (Tie2) ZLYTE 99 WNK2 LanthaScreen 1
(§20) TEK (TIE2) R849W LanthaScreen -5 WNK3 LanthaScreen 7
(§21) TEK (TIE2) Y897S ZLYTE 80 ZAK LanthaScreen 77
(§22) TESK1 LanthaScreen 37 ZAP70 ZLYTE 24
(§23) cleavage (Thermo Fisher Scientific, USA)

[2] = biological target: INSRR (IRR) (Homo sapiens, UniProt P14616)
Description: as §1, §2, §3, §4, §5, §6, §7, §8, §9, §10, §11, §12, §13, §14, §15, §16, §17, §18, §19, §20, §21, §22, §23

[3] = biological target: RAF1 (cRAF) Y340D Y341D (Homo sapiens, UniProt P04049, Y340D/Y341D)
Description: as §1, §2, §3, §4, §5, §6, §7, §8, §9, §10, §11, §12, §13, §14, §15, §16, §17, §18, §19, §20, §21, §22, §23

[4] = biological target: STK22D (TSSK1) (Homo sapiens, UniProt Q9BXA7)
Description: as §1, §2, §3, §4, §5, §6, §7, §8, §9, §10, §11, §12, §13, §14, §15, §16, §17, §18, §19, §20, §21, §22, §23

[5] = biological target: MAPKAPK3 (Homo sapiens, UniProt Q16644); conditions: MAPKAPK3, 10 µM
Description: as §1, §2, §3, §4, §5, §6, §7, §8, §9, §10, §11, §12, §13, §14, §15, §16, §17, §18, §19, §20, §21, §22, §23

[6] = biological target: RPS6KA3 (RSK2) (Homo sapiens, UniProt P51812)
Description: as §1, §2, §3, §4, §5, §6, §7, §8, §9, §10, §11, §12, §13, §14, §15, §16, §17, §18, §19, §20, §21, §22, §23

[7] = biological target: SRPK1 (Homo sapiens, UniProt Q96SB4); conditions: SRPK1, 10 µM
Description: as §1, §2, §3, §4, §5, §6, §7, §8, §9, §10, §11, §12, §13, §14, §15, §16, §17, §18, §19, §20, §21, §22, §23

[8] = biological target: MST1R (RON) (Homo sapiens, UniProt Q04912)
Description: as §1, §2, §3, §4, §5, §6, §7, §8, §9, §10, §11, §12, §13, §14, §15, §16, §17, §18, §19, §20, §21, §22, §23

[9] = biological target: KSR2 (Homo sapiens, UniProt Q6VAB6); conditions: KSR2, 10 µM
Description: as §1, §2, §3, §4, §5, §6, §7, §8, §9, §10, §11, §12, §13, §14, §15, §16, §17, §18, §19, §20, §21, §22, §23

[10] = biological target: INSR (Homo sapiens, UniProt P06213)
Description: as §1, §2, §3, §4, §5, §6, §7, §8, §9, §10, §11, §12, §13, §14, §15, §16, §17, §18, §19, §20, §21, §22, §23

[11] = biological target: DYRK4 (Homo sapiens, UniProt Q9NR20); conditions: DYRK4, 10 µM
Description: as §1, §2, §3, §4, §5, §6, §7, §8, §9, §10, §11, §12, §13, §14, §15, §16, §17, §18, §19, §20, §21, §22, §23

[12] = biological target: PLK2 (Homo sapiens, UniProt Q9NYY3); conditions: PLK2, 10 µM
Description: as §1, §2, §3, §4, §5, §6, §7, §8, §9, §10, §11, §12, §13, §14, §15, §16, §17, §18, §19, §20, §21, §22, §23

[13] = biological target: NEK6 (Homo sapiens, UniProt Q9HC98); conditions: NEK6, 10 µM
Description: as §1, §2, §3, §4, §5, §6, §7, §8, §9, §10, §11, §12, §13, §14, §15, §16, §17, §18, §19, §20, §21, §22, §23

[14] = biological target: PTK6 (Brk) (Homo sapiens, UniProt Q13882)
Description: as §1, §2, §3, §4, §5, §6, §7, §8, §9, §10, §11, §12, §13, §14, §15, §16, §17, §18, §19, §20, §21, §22, §23

[15] = biological target: PAK7 (KIAA1264) (Homo sapiens, UniProt Q9P286)
Description: as §1, §2, §3, §4, §5, §6, §7, §8, §9, §10, §11, §12, §13, §14, §15, §16, §17, §18, §19, §20, §21, §22, §23

[16] = biological target: PKN1 (PRK1) (Homo sapiens, UniProt Q16512)
Description: as §1, §2, §3, §4, §5, §6, §7, §8, §9, §10, §11, §12, §13, §14, §15, §16, §17, §18, §19, §20, §21, §22, §23

[17] = biological target: CSNK1E (CK1 epsilon) (Homo sapiens, UniProt P49674)
Description: as §1, §2, §3, §4, §5, §6, §7, §8, §9, §10, §11, §12, §13, §14, §15, §16, §17, §18, §19, §20, §21, §22, §23

[18] = biological target: BTK (Homo sapiens, UniProt Q06187)
Description: as §1, §2, §3, §4, §5, §6, §7, §8, §9, §10, §11, §12, §13, §14, §15, §16, §17, §18, §19, §20, §21, §22, §23

[19] = biological target: GRK5 (Homo sapiens, UniProt P34947); conditions: GRK5, 10 µM
Description: as §1, §2, §3, §4, §5, §6, §7, §8, §9, §10, §11, §12, §13, §14, §15, §16, §17, §18, §19, §20, §21, §22, §23

[20] = biological target: PTK2 (FAK) (Homo sapiens, UniProt Q05397)
Description: as §1, §2, §3, §4, §5, §6, §7, §8, §9, §10, §11, §12, §13, §14, §15, §16, §17, §18, §19, §20, §21, §22, §23

[21] = biological target: RPS6KA2 (RSK3) (Homo sapiens, UniProt Q15349)

Sequence of MAPKAPK3 (Q16644 whole entry): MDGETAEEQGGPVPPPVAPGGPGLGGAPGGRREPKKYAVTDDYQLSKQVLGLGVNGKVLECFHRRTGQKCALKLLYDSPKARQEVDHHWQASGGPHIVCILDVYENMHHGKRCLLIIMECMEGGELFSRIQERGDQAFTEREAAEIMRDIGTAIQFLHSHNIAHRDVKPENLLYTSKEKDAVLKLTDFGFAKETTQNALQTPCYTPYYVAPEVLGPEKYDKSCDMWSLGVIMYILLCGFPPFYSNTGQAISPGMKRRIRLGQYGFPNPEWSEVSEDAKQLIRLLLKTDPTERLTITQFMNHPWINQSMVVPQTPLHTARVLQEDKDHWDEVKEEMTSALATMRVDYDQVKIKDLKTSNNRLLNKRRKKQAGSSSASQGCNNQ
Sequence of PTK2 (FAK) (Q05397 whole entry): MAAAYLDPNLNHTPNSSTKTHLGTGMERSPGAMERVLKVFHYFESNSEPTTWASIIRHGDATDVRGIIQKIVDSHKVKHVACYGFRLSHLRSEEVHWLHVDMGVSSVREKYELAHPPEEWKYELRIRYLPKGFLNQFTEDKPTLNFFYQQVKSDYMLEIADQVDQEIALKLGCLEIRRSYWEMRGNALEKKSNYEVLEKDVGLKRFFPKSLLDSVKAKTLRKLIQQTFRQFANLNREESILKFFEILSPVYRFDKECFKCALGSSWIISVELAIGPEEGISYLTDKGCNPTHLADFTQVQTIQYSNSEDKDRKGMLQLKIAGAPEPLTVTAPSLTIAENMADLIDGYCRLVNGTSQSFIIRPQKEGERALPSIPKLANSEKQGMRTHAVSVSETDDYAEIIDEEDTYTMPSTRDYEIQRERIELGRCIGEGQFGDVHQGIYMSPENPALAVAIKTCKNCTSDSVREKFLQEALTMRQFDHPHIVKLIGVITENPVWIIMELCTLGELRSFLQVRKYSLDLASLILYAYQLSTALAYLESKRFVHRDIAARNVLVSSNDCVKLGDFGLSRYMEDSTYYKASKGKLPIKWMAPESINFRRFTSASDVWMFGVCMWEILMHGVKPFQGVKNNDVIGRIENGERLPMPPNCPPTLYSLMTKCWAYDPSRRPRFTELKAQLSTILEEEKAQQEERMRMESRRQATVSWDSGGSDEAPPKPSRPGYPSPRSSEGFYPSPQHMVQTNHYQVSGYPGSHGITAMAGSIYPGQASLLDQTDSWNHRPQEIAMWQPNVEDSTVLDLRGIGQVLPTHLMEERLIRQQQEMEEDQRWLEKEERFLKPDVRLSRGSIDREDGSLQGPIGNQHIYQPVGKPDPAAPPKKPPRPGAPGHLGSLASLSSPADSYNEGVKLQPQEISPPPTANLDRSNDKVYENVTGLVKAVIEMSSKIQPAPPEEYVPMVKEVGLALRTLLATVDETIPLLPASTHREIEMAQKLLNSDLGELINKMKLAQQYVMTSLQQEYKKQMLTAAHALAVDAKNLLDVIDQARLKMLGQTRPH
Sequence of PKN1 (PRK1) (Q16512 whole entry): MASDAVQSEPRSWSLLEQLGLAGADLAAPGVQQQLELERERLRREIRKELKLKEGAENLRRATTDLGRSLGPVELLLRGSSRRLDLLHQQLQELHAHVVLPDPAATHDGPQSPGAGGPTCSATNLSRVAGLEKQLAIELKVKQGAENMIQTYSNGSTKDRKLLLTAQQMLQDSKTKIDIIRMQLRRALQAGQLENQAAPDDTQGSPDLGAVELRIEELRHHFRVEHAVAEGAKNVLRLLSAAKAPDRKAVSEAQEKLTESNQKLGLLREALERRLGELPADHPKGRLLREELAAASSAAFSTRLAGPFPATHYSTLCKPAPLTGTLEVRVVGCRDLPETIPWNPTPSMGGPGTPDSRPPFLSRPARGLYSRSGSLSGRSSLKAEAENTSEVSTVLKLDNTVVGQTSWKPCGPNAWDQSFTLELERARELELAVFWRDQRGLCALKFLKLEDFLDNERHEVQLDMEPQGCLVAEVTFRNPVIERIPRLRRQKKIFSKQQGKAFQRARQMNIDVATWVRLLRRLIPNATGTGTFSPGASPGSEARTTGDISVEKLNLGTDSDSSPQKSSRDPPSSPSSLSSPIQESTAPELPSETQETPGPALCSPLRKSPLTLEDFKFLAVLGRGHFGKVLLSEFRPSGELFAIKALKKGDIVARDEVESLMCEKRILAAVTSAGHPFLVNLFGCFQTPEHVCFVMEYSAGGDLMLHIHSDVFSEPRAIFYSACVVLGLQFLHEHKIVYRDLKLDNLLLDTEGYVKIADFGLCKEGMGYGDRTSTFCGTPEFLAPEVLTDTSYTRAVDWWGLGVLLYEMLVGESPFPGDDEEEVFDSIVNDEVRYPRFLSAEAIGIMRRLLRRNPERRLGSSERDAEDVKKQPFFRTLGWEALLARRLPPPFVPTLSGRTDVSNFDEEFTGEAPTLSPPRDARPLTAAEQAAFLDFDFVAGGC
Sequence of BTK (Q06187 whole entry): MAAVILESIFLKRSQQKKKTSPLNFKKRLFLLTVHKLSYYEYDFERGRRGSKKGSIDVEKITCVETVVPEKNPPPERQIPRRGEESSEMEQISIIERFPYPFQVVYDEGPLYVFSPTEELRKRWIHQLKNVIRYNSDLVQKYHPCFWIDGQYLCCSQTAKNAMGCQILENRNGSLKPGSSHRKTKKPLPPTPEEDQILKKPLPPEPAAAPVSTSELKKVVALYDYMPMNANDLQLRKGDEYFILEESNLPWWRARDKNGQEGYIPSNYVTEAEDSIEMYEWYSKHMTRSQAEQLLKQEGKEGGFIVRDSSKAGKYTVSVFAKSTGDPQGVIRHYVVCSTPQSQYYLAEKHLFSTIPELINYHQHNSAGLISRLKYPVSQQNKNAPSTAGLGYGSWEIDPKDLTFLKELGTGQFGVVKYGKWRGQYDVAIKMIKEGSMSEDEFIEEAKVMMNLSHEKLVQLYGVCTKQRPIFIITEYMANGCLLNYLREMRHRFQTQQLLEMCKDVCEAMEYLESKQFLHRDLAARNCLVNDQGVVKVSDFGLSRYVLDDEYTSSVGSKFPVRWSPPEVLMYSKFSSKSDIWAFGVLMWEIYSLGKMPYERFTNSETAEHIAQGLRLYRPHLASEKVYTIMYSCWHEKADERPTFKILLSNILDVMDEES
Sequence of NEK6 (Q9HC98 whole entry): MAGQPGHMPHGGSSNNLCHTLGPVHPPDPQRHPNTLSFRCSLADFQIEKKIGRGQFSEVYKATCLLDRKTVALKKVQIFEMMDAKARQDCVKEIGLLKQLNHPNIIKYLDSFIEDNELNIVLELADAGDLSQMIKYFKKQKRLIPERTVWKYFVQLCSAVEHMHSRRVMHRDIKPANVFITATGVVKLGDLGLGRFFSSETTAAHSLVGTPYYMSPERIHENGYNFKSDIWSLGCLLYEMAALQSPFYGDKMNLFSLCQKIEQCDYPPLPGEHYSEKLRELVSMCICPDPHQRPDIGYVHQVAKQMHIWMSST
Sequence of RAF1 (cRAF) Y340D Y341D (P04049 whole entry Y340D/Y341D): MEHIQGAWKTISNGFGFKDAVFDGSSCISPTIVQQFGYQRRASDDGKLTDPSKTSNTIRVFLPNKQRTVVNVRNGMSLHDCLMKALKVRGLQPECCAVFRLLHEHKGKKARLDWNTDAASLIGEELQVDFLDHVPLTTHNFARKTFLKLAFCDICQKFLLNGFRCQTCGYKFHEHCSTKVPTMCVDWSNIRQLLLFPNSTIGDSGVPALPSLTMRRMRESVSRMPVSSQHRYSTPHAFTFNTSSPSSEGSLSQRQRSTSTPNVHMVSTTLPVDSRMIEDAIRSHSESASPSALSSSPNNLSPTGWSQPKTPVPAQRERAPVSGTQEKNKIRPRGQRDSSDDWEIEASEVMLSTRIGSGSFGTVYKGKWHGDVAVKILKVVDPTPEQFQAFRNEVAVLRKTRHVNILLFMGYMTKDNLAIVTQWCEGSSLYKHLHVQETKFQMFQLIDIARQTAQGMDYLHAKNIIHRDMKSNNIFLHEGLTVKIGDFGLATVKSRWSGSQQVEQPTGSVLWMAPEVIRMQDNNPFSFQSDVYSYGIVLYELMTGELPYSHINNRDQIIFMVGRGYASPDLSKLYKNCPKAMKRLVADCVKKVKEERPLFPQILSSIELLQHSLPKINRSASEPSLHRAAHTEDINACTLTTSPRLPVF
Sequence of GRK5 (P34947 whole entry): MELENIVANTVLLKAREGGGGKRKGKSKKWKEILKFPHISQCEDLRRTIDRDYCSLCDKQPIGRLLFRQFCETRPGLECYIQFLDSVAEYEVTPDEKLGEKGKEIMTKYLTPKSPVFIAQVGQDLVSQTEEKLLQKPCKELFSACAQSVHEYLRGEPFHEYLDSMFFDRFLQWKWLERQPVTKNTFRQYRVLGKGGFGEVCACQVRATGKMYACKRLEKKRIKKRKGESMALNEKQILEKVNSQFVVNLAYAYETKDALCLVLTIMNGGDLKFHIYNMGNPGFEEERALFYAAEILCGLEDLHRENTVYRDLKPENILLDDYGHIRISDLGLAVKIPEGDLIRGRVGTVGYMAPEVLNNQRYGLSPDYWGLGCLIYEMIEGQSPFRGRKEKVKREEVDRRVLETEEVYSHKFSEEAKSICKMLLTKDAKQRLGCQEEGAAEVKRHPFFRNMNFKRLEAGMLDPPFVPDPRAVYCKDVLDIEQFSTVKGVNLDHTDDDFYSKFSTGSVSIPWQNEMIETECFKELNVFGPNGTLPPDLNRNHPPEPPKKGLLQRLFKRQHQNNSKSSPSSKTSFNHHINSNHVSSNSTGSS
Sequence of STK22D (TSSK1) (Q9BXA7 whole entry): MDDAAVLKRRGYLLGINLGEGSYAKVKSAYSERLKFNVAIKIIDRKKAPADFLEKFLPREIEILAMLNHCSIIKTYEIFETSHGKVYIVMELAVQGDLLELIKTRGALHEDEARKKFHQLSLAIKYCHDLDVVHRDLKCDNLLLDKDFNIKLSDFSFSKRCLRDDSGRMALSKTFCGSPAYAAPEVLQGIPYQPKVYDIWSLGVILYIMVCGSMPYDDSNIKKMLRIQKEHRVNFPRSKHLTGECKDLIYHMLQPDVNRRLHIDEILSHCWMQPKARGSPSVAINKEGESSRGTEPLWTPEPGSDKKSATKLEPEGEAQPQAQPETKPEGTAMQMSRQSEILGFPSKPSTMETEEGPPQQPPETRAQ

**Q.** For O=C(c1ccc(/C=C/c2n[nH]c3ccccc23)cc1)N1CCNCC1 [KW-2449], which inhibition at 10 µM [1] is on record?
**A.** 97%

**Q.** What about the inhibition at 10 µM [2] of the same molecule?
**A.** 96%

**Q.** And the inhibition at 10 µM [3]?
**A.** 74%

**Q.** What about the inhibition at 10 µM [4] of the same molecule?
**A.** 99%

**Q.** What about the inhibition at 10 µM [5] of the same molecule?
**A.** 4%

**Q.** What about the inhibition at 10 µM [6] of the same molecule?
**A.** 95%

**Q.** What about the inhibition at 10 µM [7] of the same molecule?
**A.** 31%

**Q.** And the inhibition at 10 µM [8]?
**A.** 97%

**Q.** What about the inhibition at 10 µM [9] of the same molecule?
**A.** 5%

**Q.** What about the inhibition at 10 µM [10] of the same molecule?
**A.** 96%

**Q.** What about the inhibition at 10 µM [11] of the same molecule?
**A.** 16%

**Q.** And the inhibition at 10 µM [12]?
**A.** 35%

**Q.** What about the inhibition at 10 µM [13] of the same molecule?
**A.** 10%

**Q.** What about the inhibition at 10 µM [14] of the same molecule?
**A.** 71%

**Q.** And the inhibition at 10 µM [15]?
**A.** 98%

**Q.** What about the inhibition at 10 µM [16] of the same molecule?
**A.** 72%

**Q.** And the inhibition at 10 µM [17]?
**A.** 67%

**Q.** What about the inhibition at 10 µM [18] of the same molecule?
**A.** 99%

**Q.** And the inhibition at 10 µM [19]?
**A.** 17%

**Q.** And the inhibition at 10 µM [20]?
**A.** 95%

**Q.** What about the inhibition at 10 µM [21] of the same molecule?
**A.** 96%
